Experimental data as given in patent US11084830B2, “Five-membered non aromatic ring-pyrimidine HIV-1 reverse transcriptase inhibitor, preparation method therefor, and uses thereof” (priority 2018, dated 2021).

Key:
mock-infected MT-4 cells = assay: Cytotoxicity in mock-infected MT-4 cells, MTT method; format: cell-based; conditions: human, 5 days
Procedure: (§1) The MTT method was described briefly as follows: stock solutions (10×final concentration) of test compounds were added in 25 μL volumes to two series of triplicate wells in order to allow simultaneous evaluation of the effects on mock- and HIV-infected cells. Using a Biomek 3000 robot (Beckman Instruments, Fullerton, Calif.), serial five-fold dilutions of the test compounds (final 200 μL volume per well) were made directly in flat-bottomed 96-well microtiter trays, including untreated control HIV-1 and mock-infected cell samples for each sample. HIV-1 (IIIB) and mutant HIV-1 strains stock (50 μL at 100-300 CCID50) or culture medium was added to either the infected or mock-infected wells of the microtiter tray. Mock-infected cells were used to evaluate the effect of test compounds on uninfected cells to assess cytotoxicity. Exponentially growing MT-4 cells were centrifuged for 5 min at 1000 rpm and the supernatant was discarded. The MT-4 cells were resuspended at 6×10^5 cells/mL, and 50 μL aliquots were transferred to the microtiter tray wells. At five days after infection, the viability of mock- and HIV-infected cells was determined spectrophotometrically by means of MTT assay.
(§2) The MTT assay is based on the reduction of yellow-colored MTT (Acros Organics, Geel, Belgium) by mitochondrial dehydrogenase of metabolically active cells to form a blue-purple formazan that can be measured spectrophotometrically. The absorbances were read in an eight-channel computer-controlled photometer, at the wavelengths of 540 and 690 nm. All data were calculated using the median optical density (OD) value of three wells.

[1] = as above; format: cell-based; conditions: human, CC50
Procedure: as §1, §2

WT HIV-1 strain (IIIB) = assay: Anti-HIV-1 activity in MT-4 cells, MTT method, wild-type strain IIIB; format: cell-based; conditions: for SI IIIB: selectivity index, ratio of CC50/EC50, strain IIIB
Procedure: (§3) Antiviral potency was evaluated in MT-4 cell cultures infected with WT HIV-1 strain (IllB) as well as cells infected with a panel of NNRTI-resistant double-mutant strain K103N+Y181C (RES056).
(§4) Selected compounds were screened for inhibitory activity against HIV-1 using MTT method as describe previously by Christophe. Pannecouque et al. Nat. Protoc. […] And in vitro anti-HIV activity of compounds were supported by Rega Institute for Medical Research. The MTT assay is based on the reduction of the yellow colored 3-(4,5-dimethylthiazol-2-yl)-2,5-diphenyltetrazolium bromide (MTT) by mitochondrial dehydrogenases of metabolically active cells to a blue formazan which can be measured spectrophotometrically. Tested optical density served as an indicator for live cells, and survival rate can be concluded by testing the optical density of 540 nm and 690 nm. MT-4 cells infected with HIV-1 can only survive for 5 to 7 days without any treatment, but when HIV-1 inhibitors were added, they can protect MT-4 cell from cytopathic. Serial solution of compounds was added to MT-4 cells after infected with HIV-1, MTT method was used to detect the survival rate after culture for 5 to 7 days.
(§5) (1) MT-4 cells infected with HIV-1 viral strains (IIIB, Y181C/K103N) were provided by Rega Institute for Medical Research, Katholieke Universiteit Leuven, Belgium.
(§6) (3) Preparation of compounds: Stock solutions (10×final concentration) of test compounds is diluted with double distilled H2O for 5 folds and 5 concentrations of one compound are prepared.
(§7) (5) Test method (MTT method): Serial five-fold dilutions of test compounds were added to cultured MT-4 cells infected with HIV-1, after 5 to 7 days, MTT was added and cultured for a few hours.
as §1, with “HIV-1 (IIIB) and mutant HIV-1 strains stock (50 μL at 100-300 CCID50) or culture medium was added to either the infected or mock-infected wells of the microtiter tray.” left out, “The MT-4 cells were resuspended at 6×10^5 cells/mL, and 50 μL aliquots were transferred to the microtiter tray wells.” left out
as §2

[2] = test system: NNRTI-resistant double-mutant strain K103N+Y181C (RES056); assay: microbe, parasite or virus in culture; format: cell-based, HIV-1; conditions: for EC50: Human immunodeficiency virus 1, MT4, read-out: EC50 RES056; for SI RES056: selectivity index, ratio of CC50/EC50, strain RES056
Procedure: as §3, §4, §5, §6, §7
as §1, with “HIV-1 (IIIB) and mutant HIV-1 strains stock (50 μL at 100-300 CCID50) or culture medium was added to either the infected or mock-infected wells of the microtiter tray.” left out, “The MT-4 cells were resuspended at 6×10^5 cells/mL, and 50 μL aliquots were transferred to the microtiter tray wells.” left out
as §2

Row | Structure (SMILES) | CC50 (mock-infected MT-4 cells) | CC50 at 5 days [1] | EC50 (WT HIV-1 strain (IIIB); Human immunodeficiency virus 1, IIIB, MT4, read-out: EC50 IIIB) | EC50 [2] | SI RES056 [2] | fold more potent than ETR (WT HIV-1 strain (IIIB); EC50 against HIV-1 IIIB compared with ETR) | SI IIIB (WT HIV-1 strain (IIIB))
1 | Cc1cc(C#N)cc(C)c1Oc1nc(NC2CCN(Cc3ccc(C(N)=O)cc3)CC2)nc2c1COC2 [Compound B2, 4-((4-((4-(4-cyano-2,6-dimethylphenoxy)-5,7-dihydrofuro[3,4-d]pyrimidin-2-yl)amino)piperidin-1-yl)methyl)benzamide] | > 250000 nM | > 200000 nM | 2 nM | 41.5 ± 9.9 nM | >6039 |  | 
2 | Cc1cc(C#N)cc(C)c1Oc1nc(NC2CCN(Cc3ccc(S(N)(=O)=O)cc3)CC2)nc2c1CCC2 [Compound C1, 4-((4-((4-(4-cyano-2,6-dimethylphenoxy)-6,7-dihydro-5H-cyclopenta[d]pyrimidin-2-yl)amino)piperidin-1-yl)methyl)benzenesulfonamide] | > 234000 nM | > 200000 nM |  | 25.8 nM | >9091 | about 4.6 fold | 
3 | Cc1cc(C#N)cc(C)c1Oc1nc(NC2CCN(Cc3ccc(C(N)=O)cc3)CC2)nc2c1SCC2 [Compound A2, 4-((4-((4-(4-cyano-2,6-dimethylphenoxy)-6,7-dihydrothieno[3,2-d]pyrimidin-2-yl)amino)piperidin-1-yl)methyl)benzamide] | 165000 ± 36900 nM |  |  | 43.6 ± 5 nM | 3804 |  | 34162
4 | Cc1cc(C#N)cc(C)c1Oc1nc(NC2CCN(Cc3ccc(S(N)(=O)=O)cc3)CC2)nc2c1CSC2 [Compound D1, 4-((4-((4-(4-cyano-2,6-dimethylphenoxy)-5,7-dihydrothieno[3,4-d]pyrimidin-2-yl)amino)piperidin-1-yl)methyl)benzenesulfonamide] | 26600 ± 1960 nM |  |  | 734 ± 337 nM | 36 |  | 715
